Reference: publication PMC11745346 (Proceedings of the National Academy of Sciences of the …, 2024)

Molecular target: Kv1.1 (Homo sapiens, UniProt Q09470)
Assay: two-electrode voltage clamp in Xenopus oocytes, reference opener
Type: cell-based

Sequence of Kv1.1 (Q09470 whole entry): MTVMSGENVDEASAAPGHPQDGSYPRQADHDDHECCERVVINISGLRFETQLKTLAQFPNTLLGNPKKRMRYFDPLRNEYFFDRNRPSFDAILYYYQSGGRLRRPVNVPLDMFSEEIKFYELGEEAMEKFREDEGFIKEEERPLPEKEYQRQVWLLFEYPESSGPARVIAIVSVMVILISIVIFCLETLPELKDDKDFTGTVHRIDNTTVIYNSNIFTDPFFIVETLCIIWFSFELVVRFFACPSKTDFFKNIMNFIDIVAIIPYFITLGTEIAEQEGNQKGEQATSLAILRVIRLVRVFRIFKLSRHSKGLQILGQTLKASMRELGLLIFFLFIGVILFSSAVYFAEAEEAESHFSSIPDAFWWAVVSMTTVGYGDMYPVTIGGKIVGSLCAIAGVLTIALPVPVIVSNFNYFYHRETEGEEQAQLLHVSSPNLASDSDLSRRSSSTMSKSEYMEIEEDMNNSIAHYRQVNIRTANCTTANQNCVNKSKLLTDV

Structure (SMILES): O=C(O)c1cccnc1Nc1cccc(C(F)(F)F)c1 [niflumic acid]
- EC50: 347 µM
